Tested on: ryr1b homozygous mutant zebrafish
Type: in vivo, zebrafish (Danio rerio)
Protocol: In two independent experiments, two pools of 20 larvae from heterozygous ryr1b matings were treated with DMSO or with one of three different concentrations of NIF (1.0-100.0 μg/mL) at 1 dpf and evaluated in terms of touch-evoked escape behaviors at 5 dpf (n=40). Following phenotypic scoring, all living embryos were genotyped using three-primer genomic PCR. Swimming scores for larvae genotype-confirmed as ryr1b homozygous mutants are shown as a percentage of the total number of living larvae in each dose category: 1=poor swimming; 2 or 3=moderate or wild-type swimming. NIF improved mobility of ryr1b mutants at a dose of 10 μg/mL. […] Phospho-Stat3 band intensities were normalized to β-Actin control bands and quantified in Image J (NIH).
FIGS. 12A-12C show a ketoprofen dose-response and proposed mechanistic link. […] FIG. 12B is a dose-response graph for ketoprofen (KETO). Two pools of 20 larvae from heterozygous ryr1b matings were treated with DMSO or four different concentrations of KETO (1.0-100.0 μg/mL) at 1 dpf and evaluated in terms of touch-evoked escape behaviors at 5 dpf (n=40). Following phenotypic scoring, all living embryos were genotyped using three-primer genomic PCR. Swimming scores for larvae genotype-confirmed as ryr1b homozygous mutants are shown as a percentage of the total number of living larvae in each dose category: 1=poor swimming, 2 or 3=moderate or wild-type swimming. […] Phosphorylated STATs form dimers, translocate to nuclei, and from there are associated with various transcriptional activities. Dubowitz, V. and Sewry, C. (2006) Muscle Biopsy: A Practical Approach. Elsevier-Health Sciences Division.
The relatively relaxed zebrafish was initially identified due to a spontaneous autosomal recessive mutation within the ryr1b gene^30. Specifically, ryr1b mutants carry a 4046 base pair (bp) DNA insertion in the intron between exons 48 and 49 that includes an additional 32 bp sequence found in mutant cDNA (FIG. 3)^30. Genotypes of individual embryos were examined using three-primer genomic PCR, with an expected wild-type band of 1,668 bp and a mutant band of 653 bp. Primer sequences were as follows: ryr1b #1 (forward): 5′-[…]-3′ (SEQ ID NO: 4); ryr1b #2 (reverse): 5′-[…]-3′ (SEQ ID NO: 5); and ryr1b #3 (reverse): 5′-[…]-3′ (SEQ ID NO: 6).
The primary and secondary screens only tested chemical pools and individual compounds at a single concentration (2.0 μg/mL). Although beneficial in a high-throughput context, this approach can result in false positives and false negatives. […] For analysis, pools of 20 larvae obtained from heterozygous ryr1b matings were treated in duplicate with DMSO or with one of three different concentrations of NIF (1.0-100.0 μg/mL) at 1 dpf and scored for touch-evoked escape behaviors at 5 dpf. All scored larvae were then genotyped using three-primer genomic PCR. […] Next, hit expansion was used to verify JAK-STAT as a potential molecular pathway involved in ryr1b mutant pathology. […] A higher effective dose for 5,15-DPP was consistent with the IC50 measurements reported for each compound^40,41.

Structure (SMILES): O=C(N/N=C/c1ccc([N+](=O)[O-])o1)c1ccc(O)cc1 [Nifuroxazide]
- dose that improved mobility of ryr1b mutants / optimal activity (treated at 1 dpf, touch-evoked escape behaviors at 5 dpf, tested 1.0-100.0 μg/mL): 10 µg/mL
- touch-evoked escape behaviors / mobility of ryr1b mutants (treated from 1 dpf, scored and genotyped at 5 dpf): ryr1b mutants were among larvae that exhibited wild-type touch-evoked escape behaviors

Reference: US10973912B2, “Treatment for myopathy” (Children's Medical Center Corporation, priority 2015, dated 2021)
